The values that follow come from PMC6906431, “Selective small molecule PARG inhibitor causes replication fork stalling and cancer cell death” (Nature Communications, 2019).

Assay [1] has as its system MDA-MB-231 cells with scrambled shRNA (control). The assay can be described thus: Cellular PARylation, anti-PAR immunoblot. Type of assay: cell-based, human. The protocol:
Fig. 6 Selective inhibition of PARG by xanthine derivative JA2131. a Clonogenic survival assays of PC3, MDA-MB-231, and MCF-7 cells treated with PARGi. Cells were treated with either DMSO or 10 µM JA2131 for 2 h, irradiated with 3 Gy (MDA-MB-231 and MCF-7), 7 Gy (PC3) IR and grown for ~2 weeks, then colonies were fixed with methanol and stained with crystal violet. The results of three independent experiments are shown. Error bars = the standard error of the mean (SEM). b dose-response of JA2131 in MDA-MB-231 cells with and without IR. Cells were treated with designated concentrations of JA2131 for 2 h and then either left untreated or exposed to 3 Gy IR and allowed to recover for 1 h before lysis. Total protein was immunoblotted with anti-PAR antibody (upper panel), stripped and reprobed with anti-PCNA as a loading control. c MDA-MB-231 cells with stable scrambled shRNA (WT) or stable PARG shRNA, knockdown (KD), were treated with 5 μM JA2131 for 2 h, lysed and then total lysates were immunoblotted for anti-PAR (upper panel) followed by anti-PARG (upper middle panel), anti-PARP1 (lower middle panel) and anti-actin (bottom panel) antibody. […] Stable cells with scramble shRNA (control) and shPARG (PARG-KD) cells were treated with an increasing concentration of JA2131 for growth inhibitory IC50 determination. The data was normalized against 100% survival at the lowest inhibitor concentration. Error bars show the percent coefficient of variation. Equivalent concentrations of DMSO were used as a negative control. e The cytotoxicity of JA2131 along with PDD, Veliparib and Doxorubicin against MRC-5 cells. Error bars show the percent coefficient of variation. f CETSA for in-cell JA2131 target engagement. Normalized anti-PARG western blot intensities of three independent experiments were fitted as above and the estimated aggregation temperature (Tagg) is shown in the tabulated insert. Source Data are provided as a Source Data file.
Thus, dose-dependent JA2131-induced cellular PARylation with and without IR was investigated. For combined IR treatment, MDA-MB-231 cells were treated with JA2131 for 2 h, followed by […] X-ray and then allowed to recover for an hour before cellular extraction and western blotting analysis.
Using shRNA, next, we generated a stable MDA-MB-231 PARG knockdown (PARG-KD) cell-line (Supplementary Fig. 10). We compared PARGi JA2131-induced PARylation in PARG-KD and control cells. We reasoned that PARG-KD cells would show a reduced response to a selective PARGi as the stable PARG-KD cells would have to adopt a PARG-independent survival mechanism. MDA-MB-231 control cells and PARG-KD cells were treated with JA2131, then total cell lysates were subjected to immunoblotting with anti-PAR antibody, followed by immunodetection for anti-PARG, PARP1 and Actin antibody (Fig. 6c). […] Dose-response curves comparing control and PARG-KD cells further validate the selective action of JA2131 on control cells expressing PARG, but not on the PARG-KD cells (Supplementary Fig. 12).
Cells were grown in 6-well plates and 10 cm dishes, treated with PARGi for 2 h, irradiated and recovered for 1 h before harvesting. Cells were irradiated, ranging from 1 to 10 Gy using RAD SOURCE, RS-2000, Biological System, RadSource.com. Cells were washed with phosphate buffer and saline (PBS) and lysed with buffer containing 50 mM Hepes, pH 7.5, 1% (vol/vol) igepal-C630, 1 mg/ml bacitracin, 1 mM EDTA, 10 mM NaF, 1 mM sodium orthovanadate, 10% (vol/vol) glycerol, 50 mM NaCl, 1 mM PMSF, and Protease Inhibitor Cocktail Set III (EMD Millipore). The detergent-soluble fraction was used for western blotting. Cell fractionation was carried out using the Subcellular Protein Fractionation Kit, (#78840, ThermoFisher) according to the manufacturer’s instruction. Primary antibodies were purchased from the following sources; Actin, GAPDH, γH2AX and Histone-H3 was from Cell Signaling Technology. H2AX and LAMB1 were from Invitrogen/ThermoFisher. […]

Assay [2] has as its system PARPi resistant SUM149PT cells. The assay can be described thus: PAR and gH2AX high-content imaging in PARPi-resistant cells. Type of assay: cell-based, human. Conditions: 10 µM JA2131 2 h; 3Gy IR. The protocol: PARG inhibitors as potential therapeutic option for PARP1 inhibitor resistant cancers.
As PARP1 inhibitors are now widely used in the clinic but frequently resistance is emerging, we evaluated if PARG may be a therapeutic option for patients who become PARP1 inhibitor resistant. We therefore generated PARP1 inhibitor resistant SUM149PT triple negative breast cancer cell-lines through with 100 nM talazoparib for 5 constitutive days and then with 15-50 nM talazoparib until resistant cells grew into clones. The resulting resistant cell clones were propagated and expanded to generate PARP inhibitor resistant SUM149PT derivative cells that no longer responded to PARP1i treatment. We then investigated whether the PARP resistant breast cancer cells would response to the PARG inhibitors. Four PARPi resistant SUM149PT cell clones together with wild type cells were treated with JA2131. PAR accumulation and gH2AX foci formation were analyzed by high content imaging (Fig. S6). Treatment of cells with […]
immu n o fluorescence signals. The PAR accumulation and gH2AX foci formation was very similar […]
PARP1 resistant patients.
Supplementary Fig. 17: PARPi resistant cells respond to JA2131 PARGi. (a) PARGi sensitizes PARP1i resistant breast cancer cells. […]

As to `Cn1c(=S)c2[nH]c(SCCN3CCOCC3)nc2n(C)c1=O` [JA2131], in assay [1] (5 μM JA2131 2 h, Ci-DMSO = 1), the “anti-PAR western blot band, Normalized” value stood at 6.313. Further, in assay [1] (5 μM JA2131 2 h, ImageJ), the “anti-PAR western blot band, Intensity inversion” value is given as 0.006671; the “anti-PAR western blot band, Neg. substracted” value amounted to 0.001364; the “anti-PAR western blot band, mean int.” value worked out at 149.9. In addition, in assay [1] (5 μM, 2 h), the “PAR accumulation after treatment” value is “a measurable increase in PAR”. For the same molecule, the “cellular PARylation” value in assay [1] (JA2131 2 h combined with IR, 1 h recovery) is recorded as “massive increase in cellular PARylation at 100 nM”. In addition, the “cellular PARylation” value in assay [1] (JA2131 alone, 2 h) was “dose-dependent increase in cellular PARylation between 1 μM and 5 μM doses”. For the same molecule, the “PAR accumulation and gH2AX staining” value in assay [2] was “increased PAR accumulation as well as gH2AX staining”.
